In patent publication US6265413A, “Camptothecin compounds and a method of preparation thereof” (priority 1995, dated 2001):
“Also recorded” adds a separate entry of the source. Like-named read-outs stand apart in the source and are kept apart here.

Columns and labels:
L1210 leukemia = assay: Prolongation effects of life span against L1210-bearing mice; assay type: in vivo, BDF1 mice; conditions: for 30 days survivor / ILS(%) / Survival days MST / B.W. Change: i.p., days 1, 3, 5; for B.W. Change: day 1 to day 5
Method: Antitumor activities were measured through the experiments on prolongation effects of life span against L1210-bearing mice and tumor growth inhibitory effects against B16-bearing mice. To evaluate the antitumor activities on L1210 leukemia, a certain number of L1210 cells (in vitro) was intraperitoneally inoculated for propagation and the L1210 cells in ascites were harvested from animals sacrificed by cervical dislocation on 7th day after tumor was implanted.
(§1) Male BDF1 mice, weighing about 20 grams, were used. Animal rooms were controlled at 23±2° C. and 60±5% relative humidity, under HEPA filter, and maintained in specific pathogen free (SPF).
5×10^5 of L1210 leukemia cell, obtained in vitro form, were intraperitoneally inoculated in BDF1 mice for propagation. The L1210 tumor cells in ascites were aseptically harvested from BDF1 mice sacrificed by cervical dislocation on 7th day after tumor implantation.
The tumor cells were passaged at least three times prior to use in the test.
5×10^5 cell were intraperitoneally inoculated into BDF1 mice on day 0 and the sample ([…]) were intraperitoneally administration on days 1, 3 and 5. six mice were used for each experimental group.
Antitumor activities were evaluated by the mean survival time of a group of mice and also expressed by the ILS(%) value and the mean animal weights for day 1 and day 5.
Increased Life span (ILS)
ILS(%)={(MST of sample treated group/MST of solvent group)-1}×100

B16 melanoma = assay type: in vivo, BDF1 mice; conditions: for IR (%) on tumor size / IR (%) on tumor weight / Tumor weight day 20 / Tumor size day 8 / Tumor size day 12 / Tumor size day 16 / Tumor size day 20: days 8, 12, 16; for IR (%) on tumor size / IR (%) on tumor weight: day 20; for Tumor weight day 20: in g (unit assumed); for Tumor size day 8 / Tumor size day 12 / Tumor size day 16 / Tumor size day 20: in mm³ (unit assumed)
Method: To investigate tumor growth inhibitory effects against B16 melanoma, a certain number of B16 cells(in vitro) was subcutaneously inoculated for propagation and tumor cells were resected from animals scrificed by cervical dislocation on 14th day after tumor was implanted.
as §1
10^6 of B16 melanoma cell, obtained in vitro form, were subcutaneously in BDF1 mice for propagation. The B16 melanomas were transfered on day 14. The fresh tumors except for necrotized center were aseptically resected from tumor-bearing mice sacrificed by cervical dislocation.
The tumor cells were passaged at least […] three times prior to use in the test.
1 g subcutaneously donor tumor to be subcutaneously was homogenized in cold sterilized saline to give a final concentration of 1 g/10 ml. The 1:10 tumor suspension is injected into all BDF1 mice subcutaneously using 0.2 ml/mouse.
The mice were subcutaneously implanted with such homogenized solution and 7 to 8th day after the tumor implantation, the mice having a certain size of tumors were selected for experiments. Each experimental group were administered with the sample (0.1 ml/10 g) on 8th, 12th and 16th day after the inoculation of tumor. Eight mice were used for each experimental group.
The size of the tumors was calculated by direct measurement of the diameter of the tumors, using the formula.
Where b is the largest diameter and a is the diameter perpendicular to b and growth curves were thus obtained. (FIG. 2)
The inhibition rate of tumor growth on the basis of tumor size was calculated according to the formula.
TWt is the mean tumor volume(weight) of sample-treated groups.
TWc is the mean tumor volume(weight) of control group.

[1] = background art; cited from earlier work
topoisomerase I = conditions: background art; cited from earlier work

In the case of `CCC1(O)C(=O)OCc2c1cc1n(c2=O)Cc2c-1nc1ccccc1c2CCN(Cc1ccccc1)C(=O)OCc1ccccc1` (racemic) [Example 18, dl-7-[2-(N-benzyl-N-carbobenzyloxyamino)ethyl]camptothecin], the 30 days survivor (L1210 leukemia; total dose 10 mg/kg) was 0/6, the “ILS(%)” value (L1210 leukemia; total dose 10 mg/kg) was 33% and the “Survival days MST” value (L1210 leukemia; total dose 10 mg/kg) was 13.00 days. The “B.W. Change” value (L1210 leukemia; total dose 10 mg/kg) was -0.25 g, the 30 days survivor (L1210 leukemia; total dose 50 mg/kg) was 0/6 and the “ILS(%)” value (L1210 leukemia; total dose 50 mg/kg) was 64%. The “Survival days MST” value (L1210 leukemia; total dose 50 mg/kg) was 16.00 days and the “B.W. Change” value (L1210 leukemia; total dose 50 mg/kg) was -0.80 g.

With `CCC1(O)C(=O)OCc2c1cc1n(c2=O)Cc2c-1nc1ccccc1c2CCNCc1ccccc1` (racemic) [Example 26, dl-7-[2-(N-benzylamino)ethyl]camptothecin] the 30 days survivor (L1210 leukemia; total dose 10 mg/kg) was 0/6, the “ILS(%)” value (L1210 leukemia; total dose 10 mg/kg) was 72% and the “Survival days MST” value (L1210 leukemia; total dose 10 mg/kg) was 15.67 days. For the same molecule, the “B.W. Change” value (L1210 leukemia; total dose 10 mg/kg) was -0.09 g, the 30 days survivor (L1210 leukemia; total dose 50 mg/kg) was 0/6 and the “ILS(%)” value (L1210 leukemia; total dose 50 mg/kg) was 75%. The “Survival days MST” value (L1210 leukemia; total dose 50 mg/kg) was 16.00 days and the “B.W. Change” value (L1210 leukemia; total dose 50 mg/kg) was -0.57 g.

With `CCC1(O)C(=O)OCc2c1cc1n(c2=O)Cc2c-1nc1ccccc1c2CCNC(C)C` (racemic) [Example 30, dl-7-[2-(N-isopropylamino)ethyl]camptothecin] the “IR (%) on tumor size” value (B16 melanoma; 35 mg/kg) was 27%, the “IR (%) on tumor weight” value (B16 melanoma; 35 mg/kg) was 40% and the “Tumor weight day 20” value (B16 melanoma; 35 mg/kg) was 2.34 ± 0.44. The “Tumor size day 8” value (B16 melanoma; 35 mg/kg) was 86.93 ± 11.34, the “Tumor size day 12” value (B16 melanoma; 35 mg/kg) was 411.88 ± 71.52 and the “Tumor size day 16” value (B16 melanoma; 35 mg/kg) was 1234.65 ± 182.64. For the same molecule, the “Tumor size day 20” value (B16 melanoma; 35 mg/kg) was 3061.34 ± 752.34, the “IR (%) on tumor size” value (B16 melanoma; 70 mg/kg) was 54.8% and the “IR (%) on tumor weight” value (B16 melanoma; 70 mg/kg) was 56%. The “Tumor weight day 20” value (B16 melanoma; 70 mg/kg) was 1.71 ± 0.18, the “Tumor size day 8” value (B16 melanoma; 70 mg/kg) was 86.21 and the “Tumor size day 12” value (B16 melanoma; 70 mg/kg) was 320.06. The “Tumor size day 16” value (B16 melanoma; 70 mg/kg) was 870.46, the “Tumor size day 20” value (B16 melanoma; 70 mg/kg) was 1897.88 and the “IR (%) on tumor size” value (B16 melanoma; 140 mg/kg) was 67.72%. For the same molecule, the “IR (%) on tumor weight” value (B16 melanoma; 140 mg/kg) was 71.6%, the “Tumor weight day 20” value (B16 melanoma; 140 mg/kg) was 1.11 ± 0.21 and the “Tumor size day 8” value (B16 melanoma; 140 mg/kg) was 86.94 ± 9.34. For the same molecule, the “Tumor size day 12” value (B16 melanoma; 140 mg/kg) was 328.98 ± 76.57, the “Tumor size day 16” value (B16 melanoma; 140 mg/kg) was 695.75 ± 82.77 and the “Tumor size day 20” value (B16 melanoma; 140 mg/kg) was 1353.91 ± 134.36. For the same molecule, the “antitumor activity, comparison in words” value (B16 melanoma; ascites and solid type tumor, compared with camptothecin) was “better antitumor activity on ascites tumor and solid type tumor”, the “toxicity and safety margin, comparison in words” value (B16 melanoma; mouse, in vivo) was “less toxicity and a wide range of safety margin” and the “ILS(%) and dose range, comparison in words” value (L1210 leukemia; compared with other compounds / camptothecin (FIG. 1)) was “better dose dependency and ILS(%) than other compound; also recorded: higher ILS(%) and wider range where the effect was siginificant”. For the same molecule, the 30 days survivor (L1210 leukemia; total dose 8.75 mg/kg) was 0/6, the “ILS(%)” value (L1210 leukemia; total dose 8.75 mg/kg) was 58.7% and the “Survival days MST” value (L1210 leukemia; total dose 8.75 mg/kg) was 15.67 days. For the same molecule, the “B.W. Change” value (L1210 leukemia; total dose 8.75 mg/kg) was “+0.7 g”, the 30 days survivor (L1210 leukemia; total dose 10 mg/kg) was 0/6 and the “ILS(%)” value (L1210 leukemia; total dose 10 mg/kg) was 42%. For the same molecule, the “Survival days MST” value (L1210 leukemia; total dose 10 mg/kg) was 13.00 days, the “B.W. Change” value (L1210 leukemia; total dose 10 mg/kg) was -0.71 g and the 30 days survivor (L1210 leukemia; total dose 17.5 mg/kg) was 0/6. The “Survival days MST” value (L1210 leukemia; total dose 17.5 mg/kg) was 17.75 days, the “B.W. Change” value (L1210 leukemia; total dose 17.5 mg/kg) was “+0.45 g” and the 30 days survivor (L1210 leukemia; total dose 35 mg/kg) was 0/6. The “ILS(%)” value (L1210 leukemia; total dose 35 mg/kg) was 92.4%, the “Survival days MST” value (L1210 leukemia; total dose 35 mg/kg) was 19.00 days and the “B.W. Change” value (L1210 leukemia; total dose 35 mg/kg) was -0.12 g. The 30 days survivor (L1210 leukemia; total dose 50 mg/kg) was 0/6, the “ILS(%)” value (L1210 leukemia; total dose 50 mg/kg) was 119% and the “Survival days MST” value (L1210 leukemia; total dose 50 mg/kg) was 20.00 days. The “B.W. Change” value (L1210 leukemia; total dose 50 mg/kg) was -0.57 g, the 30 days survivor (L1210 leukemia; total dose 70 mg/kg) was 0/6 and the “ILS(%)” value (L1210 leukemia; total dose 70 mg/kg) was 143%. For the same molecule, the “Survival days MST” value (L1210 leukemia; total dose 70 mg/kg) was 24.00 days, the “B.W. Change” value (L1210 leukemia; total dose 70 mg/kg) was -0.79 g and the 30 days survivor (L1210 leukemia; total dose 140 mg/kg) was 0/6. The “ILS(%)” value (L1210 leukemia; total dose 140 mg/kg) was 110%, the “Survival days MST” value (L1210 leukemia; total dose 140 mg/kg) was 20.75 days and the “B.W. Change” value (L1210 leukemia; total dose 140 mg/kg) was -0.93 g.

For `CCc1c2c(nc3ccc(OC(=O)N4CCC(N5CCCCC5)CC4)cc13)-c1cc3c(c(=O)n1C2)COC(=O)[C@]3(O)CC` [CPT-11], the “antineoplastic activity in clinical trial / treatment” value [1] is listed as “excellent antineoplastic activities”.

With `CC[C@@]1(O)C(=O)OCc2c1cc1n(c2=O)Cc2cc3ccccc3nc2-1` [Camptothecin, camptothecin] the “IR (%) on tumor size” value (B16 melanoma; 10 mg/kg) was 57.8%, the “IR (%) on tumor weight” value (B16 melanoma; 10 mg/kg) was 59% and the “Tumor weight day 20” value (B16 melanoma; 10 mg/kg) was 1.61 ± 0.30. The “Tumor size day 8” value (B16 melanoma; 10 mg/kg) was 85.95 ± 13.15, the “Tumor size day 12” value (B16 melanoma; 10 mg/kg) was 458.56 ± 53.87 and the “Tumor size day 16” value (B16 melanoma; 10 mg/kg) was 1035.98 ± 129.36. For the same molecule, the “Tumor size day 20” value (B16 melanoma; 10 mg/kg) was 1775.50 ± 300.91, the “toxicity in clinical trial” value [1] was “severe toxicity” and the “mode of action on topoisomerase I” value (topoisomerase I) was “specific mode of action to inhibit topoisomerase I; also recorded: binds covalently with topoisomerase I”.
